Data on two compounds can be found in patent publication US10912764B2, “Salinosporamides and methods of use thereof” (The Regents of the University of California, priority 2002, dated 2021).

In brackets after ≈: the same amount, converted by molar mass. Read-outs that look alike come from different tables or passages of the source.

One data set deals with HCT-116. Put plainly: HCT-116 human colon cancer cell cytotoxicity assay.
Data set [1] relates to Staphylococcus aureus (methecillin resistant). Put plainly: Antibacterial screening, Staphylococcus aureus. Format: cell-based.
Data set [2] relates to Enterococcus faecium (vanomycin resistant). Put plainly: Antibacterial screening, Enterococcus faecium. It is filed as cell-based.
Data set [3] has as its system Candida albicans (amphoterocin B resistant). Put plainly: Antifungal screening, Candida albicans (amphoterocin B resistant). Format: cell-based.
For another data set, the system named is Candida albicans. Put plainly: Antifungal screening, Candida albicans. Format: cell-based. The settings on record: antifungal activity.
Data set [4] in a line: Solubility in organic solvents. Conditions: CHCl3, methanol, and other polar solvents like DMSO, acetone, acetonitrile, benzene, pyridine, N,N-dimethyformamide.
[5] abbreviates: HCT-116, read-out: IC50, cytotoxic activity against human colon cancer cells.

In the case of `C[C@@]12OC(=O)[C@]1([C@@H](O)[C@@H]1C=CCCC1)NC(=O)[C@@H]2CCCl` [Salinosporamide A], the IC50 – broadly, the concentration at which inhibition is half-maximal – in the data set on HCT-116 (HCT-116, read-out: IC50, HCT-116) is 0.011 µg/mL (≈ 0.0351 µM); in the data set on HCT-116 (setting [5]), 0.011 µg/mL (≈ 0.0351 µM); in data set [1] (Staphylococcus aureus), above 250 µg/mL; in data set [2] (Enterococcus faecium), above 250 µg/mL; in data set [3], above 250 µg/mL; in the data set on Candida albicans, 250 µg/mL (≈ 797 µM). Moreover, the “antibacterial activity, Staphylococcus aureus” value in data set [1] is “no antibacterial activity”. The “antibacterial activity, Enterococcus faecium” value in data set [2] is “no antibacterial activity”. The solubility entry in data set [4] was “soluble”.

Consider `COc1cc([C@@H]2c3cc4c(cc3[C@@H](O[C@@H]3O[C@@H]5CO[C@@H](C)O[C@H]5[C@H](O)[C@H]3O)[C@H]3COC(=O)[C@H]23)OCO4)cc(OC)c1O` [etoposide, reference compound], for which, in the data set on HCT-116 (setting [5]), the IC50 came out at 0.828 µg/mL (≈ 1.41 µM).
